# Experimental data taken from patent US20090028873A1, “SUBSTITUTED CYCLOHEXANOLS” (AUSPEX PHARMACEUTICALS, INC., priority 2007, published 2009).
# Where a name gives a salt, the structure may show the parent alone.
# Assay: In Vitro Human Liver Microsomal (HLM) Stability Assay
# Type: in vitro ADME
# Conditions: vs non-isotopically enriched drug, 1 μM, 4 mg per mL liver microsome protein, 37° C.
# Experimental: Liver microsomal stability assays are conducted at 4 mg per mL liver microsome protein with an NADPH-generating system in 2% NaHCO3 (2.2 mM NADPH, 25.6 mM glucose 6-phosphate, 6 units per mL glucose 6-phosphate dehydrogenase and 3.3 mM MgCl2). Test compounds are prepared as solutions in 20% acetonitrile-water and added to the assay mixture (final assay concentration 1 μM) and incubated at 37° C. Final concentration of acetonitrile in the assay should be <1%. Aliquots (50 μL) are taken out at times 0, 0.5, 1, 1.5, and 2 hours, and diluted with ice cold acetonitrile (200 μL) to stop the reactions. Samples are centrifuged at 12,000 RPM for 10 min to precipitate proteins. Supernatants are transferred to micro centrifuge tubes and stored for LC/MS/MS analysis of the degradation half-life of the test compounds.
# Results of In Vitro Human Liver Microsomal (HLM) Stability Assay
SMILES,% increase of HLM degradation half-life 0%-50%,% increase of HLM degradation half-life 50%-150%,also measured
"[2H]O[C@@]1(c2c([2H])c([2H])c([2H])c(OC([2H])([2H])[2H])c2[2H])C([2H])([2H])C([2H])([2H])C([2H])([2H])C([2H])([2H])[C@@]1([2H])C([2H])([2H])N(C([2H])([2H])[2H])C([2H])([2H])[2H] [Example 1, d25-(−)-(1S,2S)-2-[(Dimethylamino)-methyll-1-(3-methoxyphenyl)-cyclohexanol)]",+ (0%-50%),–,–
[2H]O[C@]1(c2c([2H])c([2H])c([2H])c(OC([2H])([2H])[2H])c2[2H])C([2H])([2H])C([2H])([2H])C([2H])([2H])C([2H])([2H])[C@]1([2H])C([2H])([2H])N(C([2H])([2H])[2H])C([2H])([2H])[2H] [Example 2],–,–,% increase of HLM degradation half-life −25%-0% (column −25%-0%): + (−25%-0%)
[2H]c1c([2H])c(O)c([2H])c([C@]2(O)C([2H])([2H])C([2H])([2H])C([2H])([2H])C([2H])([2H])[C@@]2([2H])C([2H])([2H])N(C([2H])([2H])[2H])C([2H])([2H])[2H])c1[2H] [Example 3],+ (0%-50%),–,–
"COc1cccc(C2(O)CCCCC2CN(C)C)c1 (stereo not drawn) [Example 5, 2-(Dimethylaminomethyl)-1-(3-methoxyphenyl)-cyclohexanol, reference compound]",–,+ (50%-150%),–
"COc1cccc([C@@]2(O)CCCC[C@@H]2CN(C)C)c1 [Example 6, (1R, 2R)-2-(Dimethylaminomethyl)-1-(3-methoxyphenyl)-cyclohexanol hydrochloride, reference compound]",–,+ (50%-150%),–
"[2H]C([2H])([2H])Oc1cccc(C2(O)CCCCC2CN(C)C)c1 (stereo not drawn) [Example 8, d3-2-(Dimethylaminomethyl)-1-(3-methoxyphenyl)-cyclohexanol]",+ (0%-50%),–,–
"[2H]C([2H])([2H])Oc1cccc([C@@]2(O)CCCC[C@@H]2CN(C)C)c1 [Example 9, d3-(1R, 2R)-2-(Dimethylaminomethyl)-1-(3-methoxyphenyl)-cyclohexanol hydrochloride]",–,+ (50%-150%),–
[2H]C([2H])([2H])N(CC1CCCCC1(O)c1cccc(OC)c1)C([2H])([2H])[2H] (stereo not drawn) [Example 11],–,+ (50%-150%),–
"[2H]C([2H])([2H])N(C[C@H]1CCCC[C@]1(O)c1cccc(OC)c1)C([2H])([2H])[2H] [Example 12, d6-(1R,2R)-2-(Dimethylaminomethyl)-1-(3-methoxyphenyl)-cyclohexanol hydrochloride]",–,–,% increase of HLM degradation half-life >150% (column >150%): + (>150%)
